The source of these data is US20220017478A1, “2-BENZOYLAMINOBENZAMIDE DERIVATIVES AS BCL-3 INHIBITORS” (University College Cardiff Consultants Limited, priority 2013, published 2022).

One test concerns the target T1, Bcl-3-p50 binding (Homo sapiens, UniProt P20749).
T1 construct: expressed in transfected cells; host or cells: HEK-293
T1 sequence (P20749 1-454): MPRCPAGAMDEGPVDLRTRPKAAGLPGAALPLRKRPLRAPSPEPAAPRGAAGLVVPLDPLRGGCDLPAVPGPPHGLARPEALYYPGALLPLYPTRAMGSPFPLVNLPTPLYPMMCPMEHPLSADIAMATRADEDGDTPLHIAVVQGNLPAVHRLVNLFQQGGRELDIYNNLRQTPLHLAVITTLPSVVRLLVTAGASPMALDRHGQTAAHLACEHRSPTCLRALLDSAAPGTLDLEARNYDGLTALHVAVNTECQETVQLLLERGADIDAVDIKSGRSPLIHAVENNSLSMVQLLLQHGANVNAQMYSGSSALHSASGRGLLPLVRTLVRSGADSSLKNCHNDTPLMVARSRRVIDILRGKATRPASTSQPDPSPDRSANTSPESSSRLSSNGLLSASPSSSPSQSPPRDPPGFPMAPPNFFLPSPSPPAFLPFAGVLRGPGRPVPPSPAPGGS
In words: Indirect sandwich ELISA of Bcl-3 binding to p50 in lysates of treated HEK-293 cells overexpressing FLAG-tagged Bcl-3. It counts as cell-based. On the procedure:
Proteins were extracted from cells in order to be analyzed by ELISA assay. The media from tissue culture flask was removed and cells were rinsed with ice cold PBS (Sigma, Dorset, UK). Appropriate volume of PBS (5 ml for T25, 10 ml for T80) was added into the flask and cells were removed with a cell scraper (Nunc, Leics, UK). The cell suspension was then transferred to 15 ml tubes and centrifuged at 11000 rpm for 5 min at room temperature. Resulting pellet was used for protein extraction immediately or stored at −20° C. prior use.
Non-denatured protein extract was prepared using non-denaturing lysis buffer (Table 1) and used to analyze protein-protein interaction.
Complete mini protease inhibitor tablets (Roche, Welwyn Garden City, UK), 10 mM sodium fluoride (Fluka Biochemika), 1 mM sodium pyrophospate and 1 mM sodium orthovanadate (Sigma, Dorset, UK) were added to the buffer prior use. Cell pellets were resuspended in appropriate volume of non-denaturing buffer (50-200 μl) and cultivated on ice 5 min. Cell suspensions were transferred to microcentrifuge tubes and sonicated on ice (3 times 5 s) and centrifuged at 10000 rpm for 10 min at 4° C. The resultant supernatant was used immediately or stored at −20° C. until required.
In our case, ELISA assay was used to detect either the amount of Flag-Bcl-3 protein alone or Flag-Bcl-3 in complex with p50, using indirect or sandwich ELISA respectively.
For Indirect and sandwich ELISA assay, Non-denaturing cell lysate (above) was diluted with TBS/T [tris buffer saline (TBS, Calbiochem, Merck) supplemented with 0.5% v/v Tween (Sigma, Dorset, UK)] to a concentration of 0.5-1 μg/μl and 100 μl was added onto ANTI-Flag coated flat bottom ELISA plates (Sigma, Dorset, UK). Samples were added in triplicates, while TBS/T was used as a negative control. The plate was cultivated at 37° C. for an hour followed by 3×200 μl washes with TBS/T. Primary antibodies, either Bcl-3 (Santa Cruz Biotech) for indirect ELISA and p50 for sandwich ELISA (Abcam) were added in known volumes (125 μl) and concentrations to each well, cultivated covered from light for an hour at room temperature. Another three 200 μl washes with TBS/T were performed before cultivation with alkaline phospatase (AP) conjugated secondary antibody. Meanwhile, para-nitrophenylphosphate solution (pNPP, Santa Cruz Biotechnology, California, USA) was prepared according to manufacturer's instructions (5 mg of pNPP disodium salt in 5 ml of pNPP substrate buffer). The solution was mixed well and covered from light prior to use. pNPP is a substrate of choice for use with alkaline phosphatase and produces a soluble end product that is yellow in colour. Therefore colour changes can be measured and represent the amount of AP present. After cultivation with secondary antibody, the wells were washed 3×200 μl. TBS/T, pNPP solution was added (50 μl/well) and cultivated for an hour covered from light at room temperature. The reaction was stopped by addition of 3N NaOH (20 μl/well) and the colorimetric changes were measured at 405 nm using a plate reader.
HEK-293 cells overexpressing Bcl-3 were cultivated with Compound 1a over a range of molarities for 24 hrs before cell lysates were obtained under non-denaturing conditions. […] Indirect ELISA assay was performed using Bcl-3 antibody to show an equal loading across samples treated with compound 1a (FIG. 2B) and controls (FIG. 2C).
HEK-293 Bcl-3 WT cells were cultivated with selected compounds over a range of molarities for 24 hrs before cell lysates were obtained under non-denaturing conditions. The dose response curve for selected analogues was generated using GraphPad software (FIG. 8A-D).
Background: An ELISA detects its analyte on a solid surface through an enzyme-linked reagent.

A further test concerns NF-κB activity. In words: NF-κB luciferase reporter assay in HEK-293 cells overexpressing Bcl-3. In kind it is cell-based. To be noted: Homo sapiens, HEK293. How it is done: For NF-κB luciferase assays, cells were seeded into clear bottom black 96-well plates (Corning Inc., Lowell, US) in antibiotic free culture media in appropriate density. After 24 hrs, cells were transfected with 10 ng of 3×κB luciferase plasmid and 10 ng of pcDNA3.1-Lacl plasmid per well. Empty pcDNA3.1 plasmid was also included to normalize the total weight of DNA transfected to 100 ng. For positive and negative controls respectively, 10 ng of pGL3control or pGL3basic were transfected in place of 3×KB luciferase plasmid. Transfection was carried out using Lipofectamine LTX reagents (Invitrogen, Paisley, UK).
After 48 hrs post-transfection with luciferase reporter plasmid, the media was aspirated and cells were lyzed using 50 μl/well of Glo-lysis buffer (Promega, Southampton, UK). The plate was left on a rocker for 20 min to facilitate complete cell lysis. […] Subsequently, 30 μl/well of Bright-Glo luciferase substrate (Promega, Southampton, UK) was added to the original plate and asses immediately for luminescence activity. The luminescence produced from either reaction was read using a Flurostar Optima plate reader (BMG tabtech, Bucks, UK).
The effect of Compound 1a on NF-κB activity was determined by NF-κB luciferase assay in MDA-MB-231 and HEK-293 cells overexpressing Bcl-3 and HEK-293 cells overexpressing p52. […]

[1] abbreviates: HEK-293 overexpressing Bcl-3, 24 hrs, read-out: IC50 Indirect Sandwich ELISA (Bcl-3-p50 binding).
Where [2] appears, read: Table 3, read-out: ELISA assay (μM) IC50.

Structures are written as SMILES. Read-outs that look alike come from different tables or passages of the source.

Usually IC50 stands for the concentration that gives 50% inhibition. Take `COc1cccc(C(=O)NCCN2CCOCC2)c1NC(=O)c1ccccc1F` [Compound 3a, 2-[(2-fluorobenzoyl)amino]-3-methoxy-N-(2-morpholin-4-ylethyl) benzamide]: the 50% inhibitory concentration (IC50) at Bcl-3-p50 binding (setting [1]) was 0.119 µM; on Bcl-3-p50 binding (setting [2]), 0.0119 µM.

Consider `COc1ccc(C(=O)Nc2ccccc2C(=O)NCCN2CCOCC2)cc1` [Compound 1f, 2-[(4-methoxybenzoyl)amino]-N-(2-morpholin-4-ylethyl)benzamide], for which the results for the IC50 at Bcl-3-p50 binding (setting [1]) and at Bcl-3-p50 binding (setting [2]) were 0.0602 µM and 0.0617 µM, respectively.

Take `O=C(Nc1ccccc1C(=O)NCCCN1CCOCC1)c1ccccc1F` [Compound 2a]: the concentration for half-maximal inhibition (IC50) on Bcl-3-p50 binding (HEK-293 Bcl-3 WT, 24 hrs, IC50 could not be established, calculated with GraphPad, read-out: IC50 Indirect Sandwich ELISA, calculated from the dose response curve) was 15.2 µM.

With `O=C(Nc1ccccc1C(=O)NCCN1CCOCC1)c1ccccc1F` [Compound 1a, 2-[(2-fluorobenzoyl)amino]-N-(2-morpholin-4-ylethyl)benzamide], the half-inhibitory concentration (IC50) with NF-κB activity is 160 nM; at Bcl-3-p50 binding (setting [1]), 0.386 µM.
